In this assay the test system is P. falciparum 3D7 growth, pLDH absorbance. In words: P. falciparum 3D7 growth inhibition, dose response, strain 3D7 (AID 2305).

Data on 34 compounds can be found in PubChem BioAssay AID2305 (GlaxoSmithKline (GSK), 2010).

With `COc1ccc(CNCc2ccc(-c3ccc(CNCCc4ccccc4)cn3)cc2)cn1`, the IC50 is 1010 nM. This counts as single-digit micromolar.
Regarding `COc1ccc(CNC2CCN(C)CC2)cc1-c1ccc(S(=O)(=O)NCC2CCCO2)s1` (centres undefined), the IC50 is 800 nM.
Take `O=C(Nc1ccccc1)c1ccc(N2CCC(COc3cccc(C(F)(F)F)c3)CC2)nc1`: the IC50 was determined as 300 nM.
Then `Cc1cccc(OC2CCN(c3ncc(C(=O)NCCCN4CCCC4=O)cc3Cl)CC2)c1`, with 180 nM; and `Cc1ncccc1-c1cccc2c(NC(=O)Nc3ccc4nccc(N5CCN(C)CC5)c4c3)cccc12`, with 630 nM.
For `CCCC(CNCc1ccccc1)CNc1cc(=O)c2ccccc2[nH]1` (centres undefined) the value was 1020 nM; for `Cc1ccc(Nc2nnc(SCC(=O)Nc3ccc(CN4CCCC4)cc3)s2)cc1`, 1210 nM.
`CC(=O)N(C)C1CCN(Cc2ccc(-c3ccc(-c4nc5ccc(F)cc5[nH]4)s3)cc2)C1` (centres undefined): the IC50 was 970 nM.
For `CCCc1c(C(=O)OCC)c2cc(O)ccc2n1-c1ccc(OC)cc1`, the half-maximal inhibitory concentration (IC50) turned out to be 140 nM.
The compound `CCc1ccc(-n2c(NC(=O)c3ccccc3)nc3ccc(S(=O)(=O)NC(C)C(C)C)cc32)cc1` (centres undefined) yielded an IC50 of 930 nM.
The compound `Cc1ccc(C)c2sc(N(CCCn3ccnc3)C(=O)c3ccco3)nc12` came in with an IC50 of 870 nM.
Compound `CC(C)(C)c1ccc(NC(=O)c2ccc(CN3CCCN(Cc4cccc(O)c4)CC3)cc2)cc1` showed a concentration for half-maximal inhibition (IC50) of 670 nM. This IC50 and that of the compound before are within 1.5-fold of each other.
`COc1ccc(CCNCCCCCCNCCc2ccc(Cl)cc2)c(Cl)c1OC`: the IC50 was 830 nM.
Compound `N=C(N)c1ccc(C=Cc2ccc(C(=N)N)cc2O)cc1` had an IC50 of 100 nM.
On to `CO/C(=C\C=C\c1cc2cc(Cl)c(Cl)cc2[nH]1)C(=O)NCCCN1CCN(c2cccc(O)c2)CC1`, for which the IC50 amounted to 580 nM.
Take `O=C(Nc1ccc(-c2cccc(CN3CCC(O)CC3)c2)cc1)c1cccc(Cl)c1`: the half-maximal inhibitory concentration (IC50) was 830 nM. The IC50 values of the last two compounds are within 1.5-fold of each other.
On to `CCc1ccc(CN(Cc2ccc(C)cc2)Cc2ccc(NC(C)=O)cc2)cc1`, for which the IC50 is 960 nM.
As to `Cc1noc(-c2ccccc2)c1NC(=O)N1CCN(CCCCCCNC(=O)/C=C/c2ccc(Cl)c(Cl)c2)CC1`, the IC50 was found to be 880 nM.
As for `Cc1ccc(NS(=O)(=O)c2ccc(C(C)N3CCC(N4CCCCC4)CC3)cc2)cc1C` (centres undefined), the IC50 came out at 760 nM.
Turning to `N#Cc1ccc2c(c1)CCN(CCC1CCC(NC(=O)c3cc4ccccc4[nH]3)CC1)CC2` (centres undefined), the IC50 amounted to 1010 nM.
The compound `N#Cc1ccc(-c2ccc(C(=O)NC3CCN(CCN4CCC(c5cn(CCOC6CCCCO6)c6ccccc56)CC4)CC3)cc2)cc1` (centres undefined) yielded an IC50 of 600 nM.
As to `Cc1[nH]c(C)c(-c2ccc(OCc3cc(F)cc(F)c3)nc2)c(=O)c1Br`, the IC50 worked out at 100 nM. This IC50 lies about 6-fold lower than the previous one.
`CC(C)(C)c1ccc(CN2CCC(NC(=O)c3ccc(-c4cccc(C(F)(F)F)c4)s3)CC2)cc1` had an IC50 of 360 nM.
Turning to `COc1c(C2CCN(CCCCNC(=O)c3cc(-c4ccc(Cl)cc4)[nH]c3C)CC2)ccc2c1CCCC2`, the IC50 was determined as 970 nM.
Compound `Cc1ccc(-n2c(=O)c3c(n4c(SC(C)C)nnc24)-c2ccccc2CC32CCCCC2)cc1` had an IC50 of 950 nM.
`O=C(CN1CCCCC1)Nc1ccc(Nc2nccc(NCC(O)c3ccccc3)n2)cc1` (centres undefined) returned an IC50 of 580 nM.
In turn, `O=C(CCc1cnc[nH]1)Nc1cccc(-c2ccc(-c3nc4ccc(F)cc4[nH]3)cc2)c1` yielded an IC50 of 240 nM.
Regarding `Cc1cccc2[nH]c(-c3cccc(-c4cccc(NC(=O)CNC(=O)c5ccc(O)cc5)c4)c3)nc12`, the IC50 is 990 nM.
Consider `CN(C)CC(=O)Nc1ccc(-c2ccc3ccnc(N)c3c2)cc1`, for which the half-inhibitory concentration (IC50) was 30 nM.
Compound `CCN(CC)CCN(Cc1ccc(-c2ccc(C(F)(F)F)cc2)cc1)C(=O)Cn1c(CCc2c(F)cc(F)cc2F)nc(=O)c2ccccc21` had an IC50 of 1040 nM.
The compound `CC[C@H](C)CNC(=O)c1cncc(-c2ccc(CNCC3CNCCCO3)cc2)c1` (some centres undefined) displayed an IC50 of 1020 nM. The IC50 values of the last two compounds are within 1.5-fold of each other.
In turn, `COc1ccccc1-c1[nH]c2ccccc2c1CN1CCC(c2c(C)cccc2C)CC1` gave an IC50 of 920 nM. The IC50 values of the last two compounds are within 1.5-fold of each other.
For `CCOc1ccc2nc3cc(N)ccc3c(N)c2c1` the value was 530 nM; for `O=C(Nc1ccc(Cn2ncc(N3CCCNCC3)c(Cl)c2=O)cc1)Nc1cc(F)cc(C(F)(F)F)c1`, 770 nM.
